US11191773B2, “Methods of treatment for bacterial infections” (President and Fellows of Harvard College, priority 2017, dated 2021)
Like-named read-outs stand apart in the source and are kept apart here. Bridge positions count the residues as written; N and C are the ends. Square brackets hold non-standard residues; d marks the D form. Peptide text beside a SMILES is read from it. * marks the point of attachment. Ileψ(thiazoline)Cys = CC[C@H](C)[C@H](N)C1=N[C@H](C(=O)*)CS1; dOrn = NCCC[C@@H](N)C(=O)O

Experiments:
lptB1 = experiment: Disk diffusion assay; format: cell-based, E. coli; details: for Zone of inhibition, diameter of the zone of total growth inhibition: 6-mm disks, bacitracin 10IU, erythromycin 15 μg, novobiocin 30 μg, rifampin 5 μg, nalidixic acid 5 μg; for zone of inhibition at 15 µg/disc / zone of inhibition at 5 µg/disc: Escherichia coli
Description: (§1) Zones of inhibition were measured in disk diffusion assays of wild type, IptB1, and suppressors IptB1(R144H) and IptB1(G33C) pictured in FIG. 6B. Assays were conducted with 6-mm disks. Numbers outside of parentheses report the diameter of the zone of total growth inhibition (in mm), while numbers inside parenthesis report the diameter of the zone of partial growth inhibition.
(§2) Disk diffusion assays were performed as described in Sherman et al., Proc. Natl. Acad. Sci. USA 2014, 111, 4982-4987. Premade Sensi-Disc (BD-Beckton, Dickinson and Company) were used for bacitracin 10IU, erythromycin 15 μg, novobiocin 30 μg, and rifampin 5 μg.

lptB1(R144H) = experiment: Disk diffusion assay; format: cell-based, E. coli; details: for Zone of inhibition, diameter of the zone of total growth inhibition: 6-mm disks, bacitracin 10IU, erythromycin 15 μg, novobiocin 30 μg, rifampin 5 μg, nalidixic acid 5 μg
Description: as §1, §2

wild type = experiment: Disk diffusion assay; format: cell-based, E. coli; details: 6-mm disks, bacitracin 10IU, erythromycin 15 μg, novobiocin 30 μg, rifampin 5 μg, nalidixic acid 5 μg
Description: as §1, §2

lptB1(G33C) = experiment: Disk diffusion assay; format: cell-based, E. coli
Description: as §1, §2

IptFG(ch) mutant = experiment: Rescue of growth of coupling helix mutant (plating and disk assays); format: cell-based, E. coli; details: disks on LB plates, each disk 5 μg compound (FIG. 15)
Description: FIG. 8B is a series of pictures of bacterial overnight cultures grown in minimal medium. The cultures were serially diluted ten-fold and spotted onto LB agar plates with and without compounds.
FIG. 15 is a picture of bacterial lawns grown on plates in the presence of disks containing antibiotics. […] Strains were grown overnight in minimal media and then plated on LB plates. Each disk contained 5 μg compound.
The coupling helices in LptFG each contain a strictly-conserved glutamate, and changing both glutamates to alanine (IptFG(ch)) causes a lethal loss of function (FIG. 8B, LB panel). […] Because novobiocin also contacts R91 (FIG. 7C), we speculated that it might rescue growth of IptFG(ch) by masking the charge. […] We conclude that novobiocin suppresses Lpt defects in vivo by interacting with LptB at R91; therefore, novobiocin interacts with LptB in cells in a similar manner to that observed in the crystal structure.
as §2
Efficiency of plating assays were performed on indicated media using the method described in Butler et al., J. Bacteriol. 2013, 195, 4639-4649.

LptB = target: T1, LptB (Escherichia coli, UniProt P0A9V1); experiment: Fbn-LptB binding assay (19F NMR linewidth); design: species or system E. coli
T1 construct: LptB-His (full-length LptB with a C-terminal His8 tag); His8 (C); made in house; host or cells: E. coli KRX (Promega)
Description: FIG. 12 is a graph showing the ^19F NMR linewidth of fluorobiocin (fbn) plotted vs. log[LptB]. Data were analyzed with GraphPad Prism 7 software using a nonlinear fit, log(agonist) vs. response with an R^2=0.9909.
We soaked novobiocin into LptB-ADP crystals and obtained a 2.0-Å structure of a co-complex (FIG. 7A, FIG. 11). ADP is still present in the co-complex, and novobiocin binds adjacent to the groove in LptB that accommodates the coupling helices from LptFG (FIG. 7B, FIG. 11). Coupling helices are a conserved motif in ABC systems that connect the transmembrane domains (here, LptFG) to the nucleotide-binding domains (here, LptB). […] This residue is invariant in LptB, and non-conservative substitutions at this position are lethal because they disrupt proper formation of the LptB2FG complex. Novobiocin thus binds a critical position at the LptBLptFG interface. To estimate the affinity of novobiocin for LptB, we synthesized an otherwise identical analogue in which a phenolic hydroxyl was substituted with a 19F-label (fluorobiocin, FIG. 8A).
5 mL of the buffered Fbn ligand solution was prepared by mixing 200 μL of 25X TBS pH 8.0, 125 μL 200 mM ADP pH 7.0, 125 μL 200 mM MgCl2, 4.43 μL of 56.5 mM Fbn, 4.55 mL of D20. Final [Tris-Cl]=50 mM, [NaCl]=150 mM, [ADP]=5 mM, [MgCl2]=5 mM, [Fbn]=50 μM. […]

[1] = system: E. coli strain ATCC 25922; experiment: Neutropenic mouse thigh infection efficacy; format: in vivo; details: for Average log10 CFU/g of thigh: neutropenic CD-1 mice, 26 hours post infection
Description: Female CD-1 mice from Charles River Laboratories were allowed to acclimate for 5 days prior to start of study. Animals were housed four per cage with free access to food and water. Mice received two doses of cyclophosphamide on days −4 and −1 with 150 mg/kg and 100 mg/kg delivered IP, respectively. All procedures were performed to NeoSome IACUC policies and guidelines as well as OLAW standards.
E. coli strain ATCC 25922 was prepared for infection from an overnight plate culture. A portion of the plate was resuspended in sterile saline and adjusted to an OD of 0.15 at 625 nm. The adjusted bacterial suspension was further diluted to target an infecting inoculum of 1.5×10^5 CFU/mouse, the actual inoculum size for E. coli was 1.45×10^5 CFU/mouse. Plate counts of the inoculum was performed to confirm inoculum concentration.
Mice were inoculated with 100 μL of the prepared bacterial suspension via intramuscular injection into the right rear thigh.
Beginning at two hours post infection, mice were dosed with test agents subcutaneously at 10 mL/kg. A second dose of test agents was delivered at 6 hours post infection. For co-administered therapy, test agents were delivered separately at two different injection sites. Four animals were dosed per group. One group of four mice were euthanized at initiation of therapy (T=2 h) and CFUs determined. All remaining mice were euthanized at 26 hours post infection. At termination, thighs were aseptically excised, weighed, and homogenized to a uniform consistency in 2 mL of sterile saline. The homogenate was serially diluted and plated on bacterial growth media. The CFUs were enumerated after overnight incubation. The average and standard deviations for each group were determined.
Neutropenic mice infected with E. coli were treated with novobiocin, polymyxin B, or a combination of the two for the evaluation of efficacy is a thigh infection model.

Escherichia coli = experiment: Minimal inhibitory concentrations, checkerboard microdilution; format: cell-based; details: grown at 37° C. for 24 h
Description: (§3) Checkerboard microdilution assays between polymyxin B and novobiocin were performed in wild-type strains (unless otherwise noted) grown at 37° C. for 24 h. Checkerboard data (FIG. 1A-1F) are representative of at least three biological replicates. The following strains were tested: A) Wild-type Escherichia coli, ATCC 25922; B) Wild-type Enterobacter cloacae; ATCC 13047) Wild-type Klebsiella pneumoniae, ATCC 700721; D) Wild-type Pseudomonas aeruginosa, ATCC 15692 (PAO1); E) Wild-type Acinetobacter baumannii, ATCC 19606; F) novobiocin-resistant Acinetobacter baumannii, ATCC 19606 gyrB(R150C).

[2] = system: Acinetobacter baumannii Novo^R; experiment: as above; format: cell-based; details: grown at 37° C. for 24 h
Description: as §3

Pseudomonas aeruginosa = experiment: as above; format: cell-based; details: grown at 37° C. for 24 h
Description: as §3

Klebsiella pneumoniae = experiment: as above; format: cell-based; details: grown at 37° C. for 24 h
Description: as §3

[3] = 6-mm disks, bacitracin 10IU, erythromycin 15 μg, novobiocin 30 μg, rifampin 5 μg, nalidixic acid 5 μg
[4] = read-out: Zone of inhibition, diameter of the zone of partial growth inhibition (in parentheses)
[5] = read-out: Zone of inhibition, diameter of the zone of total growth inhibition
[6] = Escherichia coli, read-out: Zone of inhibition, diameter of the zone of partial growth inhibition (in parentheses)
[7] = Escherichia coli, read-out: Zone of inhibition, diameter of the zone of total growth inhibition
[8] = PMB 0.03 mg/kg (total 0.06) BID/SC
[9] = PMB 0.1 mg/kg (total 0.2) BID/SC
[10] = PMB 0.3 mg/kg (total 0.6) BID/SC

T1 sequence (P0A9V1 whole entry): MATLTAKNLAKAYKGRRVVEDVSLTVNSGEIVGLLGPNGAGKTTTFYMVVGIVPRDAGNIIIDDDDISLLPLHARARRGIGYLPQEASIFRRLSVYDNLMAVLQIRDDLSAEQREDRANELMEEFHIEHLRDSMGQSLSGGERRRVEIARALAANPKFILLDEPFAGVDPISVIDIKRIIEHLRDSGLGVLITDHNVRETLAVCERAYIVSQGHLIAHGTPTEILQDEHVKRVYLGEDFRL

In the case of CC[C@H](C)[C@H](N)C1=N[C@H](C(=O)N[C@@H](CC(C)C)C(=O)N[C@H](CCC(=O)O)C(=O)N[C@H](C(=O)N[C@H]2CCCCNC(=O)[C@H](CC(N)=O)NC(=O)[C@@H](CC(=O)O)NC(=O)[C@H](Cc3cnc[nH]3)NC(=O)[C@@H](Cc3ccccc3)NC(=O)[C@H]([C@@H](C)CC)NC(=O)[C@@H](CCCN)NC2=O)[C@@H](C)CC)CS1 [Bacitracin] ({Ileψ(thiazoline)Cys}-L[dE]IK[dOrn]I[dF]H[dD]N; lactam 4-C), the “Zone of inhibition, diameter of the zone of total growth inhibition” value (“Zone … of total growth inhibition” for short) (lptB1) is reported as 17 mm, the “Zone … of total growth inhibition” value (lptB1(R144H)) is reported as 17 mm and the “Zone … of total growth inhibition” value (wild type) is reported as under 6 mm. The “Zone of inhibition, diameter of the zone of partial growth inhibition (in parentheses)” value (lptB1(G33C); [3]) was “(8) mm”.
In the case of CC[C@H]1OC(=O)[C@H](C)[C@@H](O[C@H]2C[C@@](C)(OC)[C@@H](O)[C@H](C)O2)[C@H](C)[C@@H](O[C@@H]2O[C@H](C)C[C@H](N(C)C)[C@H]2O)[C@](C)(O)C[C@@H](C)C(=O)[C@H](C)[C@@H](O)[C@]1(C)O [Erythromycin], the zone of inhibition at 15 µg/disc (lptB1; [4]) is reported as 21 mm, the zone of inhibition at 15 µg/disc (lptB1; [5]) is reported as 16 mm and the zone of inhibition at 15 µg/disc (lptB1(R144H); [6]) is reported as 16 mm. It also gave a zone of inhibition at 15 µg/disc (wild type; [6]) of 8 mm and a zone of inhibition at 15 µg/disc (lptB1(G33C); [6]) of 11 mm.
With CCn1cc(C(=O)O)c(=O)c2ccc(C)nc21 [Nalidixic acid] the “suppression of lethality of IptFG(ch)” value (IptFG(ch) mutant) was “but not nalidixic acid (NA), suppressed the lethality of IptFG(ch)”, the zone of inhibition at 5 µg/disc (lptB1; [4]) was 21 mm and the zone of inhibition at 5 µg/disc (lptB1; [5]) was 18 mm. It also gave a zone of inhibition at 5 µg/disc (lptB1(R144H); [6]) of 20 mm, a zone of inhibition at 5 µg/disc (lptB1(R144H); [7]) of 17 mm and a zone of inhibition at 5 µg/disc (wild type; [6]) of 14 mm. For the same compound, the zone of inhibition at 5 µg/disc (wild type; [7]) was 11 mm, the zone of inhibition at 5 µg/disc (lptB1(G33C); [6]) was 14 mm and the zone of inhibition at 5 µg/disc (lptB1(G33C); [7]) was 12 mm.
For CO[C@H]1/C=C/O[C@@]2(C)Oc3c(C)c(O)c4c(O)c(c(/C=N/N5CCN(C)CC5)c(O)c4c3C2=O)NC(=O)/C(C)=C\C=C\[C@H](C)[C@H](O)[C@@H](C)[C@@H](O)[C@@H](C)[C@H](OC(C)=O)[C@@H]1C [Rifampicin], the “Zone … of total growth inhibition” value (lptB1) was 17 mm, the “Zone … of total growth inhibition” value (lptB1(R144H)) was 24 mm and the “Zone of inhibition, diameter of the zone of partial growth inhibition (in parentheses)” value (wild type) was 9 mm. The “Zone … of total growth inhibition” value (wild type) was 8 mm and the “Zone … of total growth inhibition” value (lptB1(G33C); [3]) was 9 mm.
For CO[C@@H]1[C@@H](OC(N)=O)[C@@H](O)[C@H](Oc2ccc3c(O)c(NC(=O)c4ccc(F)c(CC=C(C)C)c4)c(=O)oc3c2C)OC1(C)C [fluorobiocin, (3R,4S,5R,6R)-6-((3-(4-fluoro-3-(3-methylbut-2-en-1-yl)benzamido)-4-hydroxy-8-methyl-2-oxo-2H-chromen-7-yl)oxy)-5-hydroxy-3-methoxy-2,2-dimethyltetrahydro-2H-pyran-4-yl carbamate], the Kd (LptB; 19F NMR linewidth vs. log[LptB], nonlinear fit, [Fbn]=50 μM, 5 mM ADP) was 18 µM and the “affinity for LptB in words” value (LptB; Solution NMR binding experiments) was “low micromolar binder”.
polymyxin B was tested, and the “change in log10 CFU/g of thigh from 2 hour control” value [1, 8] was 3.91 log10 CFU/g of thigh, the “change in log10 CFU/g of thigh from 26 hour controls” value [1, 8] was −0.18 log10 CFU/g of thigh and the “change in log10 CFU/g of thigh from 2 hour control” value [1, 9] was 3.95 log10 CFU/g of thigh. The “change in log10 CFU/g of thigh from 26 hour controls” value [1, 9] was −0.13 log10 CFU/g of thigh, the “change in log10 CFU/g of thigh from 2 hour control” value [1, 10] was 3.38 log10 CFU/g of thigh and the “change in log10 CFU/g of thigh from 26 hour controls” value [1, 10] was −0.70 log10 CFU/g of thigh. For the same compound, the “change in log10 CFU/g of thigh from 2 hour control” value ([1]; PMB 1 mg/kg (total 2) BID/SC) was 0.49 log10 CFU/g of thigh, the “change in log10 CFU/g of thigh from 26 hour controls” value ([1]; PMB 1 mg/kg (total 2) BID/SC) was −3.60 log10 CFU/g of thigh and the “reductions in CFUs from the 26 hour infection controls” value ([1]; Polymyxin B as a single agent at 0.2 mg/kg) was 0.70 log10 CFU/gram of thigh. For the same compound, the “reductions in CFUs from the 26 hour infection controls” value ([1]; Polymyxin B as a single agent at 1 mg/kg) was 3.60 log10 CFU/gram of thigh, the “Average log10 CFU/g of thigh” value [1, 8] was 9.44 log10 CFU/g of thigh and the “Average log10 CFU/g of thigh” value [1, 9] was 9.49 log10 CFU/g of thigh. For the same compound, the “Average log10 CFU/g of thigh” value [1, 10] was 8.92 log10 CFU/g of thigh, the “Average log10 CFU/g of thigh” value ([1]; PMB 1 mg/kg (total 2) BID/SC) was 6.02 log10 CFU/g of thigh and the MIC (Escherichia coli) was 0.11 µg/mL. The MIC [2] was 0.28 µg/mL, the MIC (Pseudomonas aeruginosa) was over 1 µg/mL and the MIC (Klebsiella pneumoniae) was 1 µg/mL.
